The record followed here is ChEMBL document CHEMBL3045723, “Synthesis of novel 3-(5-sulfanyl-1,3,4-oxadiazol-2-yl)-2H-chromen-2-one condensed s-triazinyl piperazines and piperidines as antimicrobial agents” (2012).

In brackets after ≈: the same amount, converted by molar mass.

Common to all, as to format: functional
The test system of assay [1] is Staphylococcus aureus. The experiment in a line: Antibacterial activity against Staphylococcus aureus MTCC 96 after 24 hr by agar disk diffusion test.
In assay [2] the test system is Aspergillus niger. Put plainly: Antifungal activity against Aspergillus niger MTCC 282 after 48 hr. Conditions: MTCC 282, 48 h.
In assay [3] the test system is Salmonella typhi. The experiment in a line: Antibacterial activity against Salmonella enterica subsp. enterica serovar Typhi MTCC 733 after 24 hr by agar disk diffusion test.
For assay [4], the system named is Shigella flexneri. Put plainly: Antibacterial activity against Shigella flexneri after 24 hr by agar disk diffusion test.
In assay [5] the test system is Candida albicans. The experiment in a line: Antifungal activity against Candida albicans MTCC 183 after 48 hr. Conditions: MTCC 183, 48 h.
Assay [6] concerns Escherichia coli. Put plainly: Antibacterial activity against Escherichia coli MTCC 739 after 24 hr by agar disk diffusion test.
In assay [7] the test system is Bacillus cereus. Put plainly: Antibacterial activity against Bacillus cereus MTCC 619 after 24 hr. The conditions noted are these: MTCC 619, 24 h.
For assay [8], the system named is Pseudomonas aeruginosa. Put plainly: Antibacterial activity against Pseudomonas aeruginosa MTCC 741.
Assay [9] deals with Candida albicans. The experiment in a line: Antifungal activity against Candida albicans MTCC 183 after 24 hr by agar disk diffusion test.
The test system of assay [10] is Shigella flexneri. Put plainly: Antibacterial activity against Shigella flexneri after 24 hr.
The test system of assay [11] is Bacillus cereus. The experiment in a line: Antibacterial activity against Bacillus cereus MTCC 619 after 24 hr by agar disk diffusion test.
The test system of assay [12] is Salmonella typhi. The experiment in a line: Antibacterial activity against Salmonella enterica subsp. enterica serovar Typhi MTCC 733 after 24 hr. The conditions noted are these: MTCC 733, 24 h.
Assay [13] concerns Escherichia coli. Put plainly: Antibacterial activity against Escherichia coli MTCC 739 after 24 hr. Conditions: MTCC 739, 24 h.
The subject of assay [14] is Proteus vulgaris. The experiment in a line: Antibacterial activity against Proteus vulgaris MTCC 1771 after 24 hr by agar disk diffusion test.
Assay [15] concerns Klebsiella pneumoniae. The experiment in a line: Antibacterial activity against Klebsiella pneumoniae MTCC 109 after 24 hr by agar disk diffusion test.
The subject of assay [16] is Pseudomonas aeruginosa. Put plainly: Antibacterial activity against Pseudomonas aeruginosa MTCC 741 after 24 hr by agar disk diffusion test.
Assay [17] has as its system Staphylococcus aureus. Put plainly: Antibacterial activity against Staphylococcus aureus MTCC 96 after 24 hr. The conditions noted are these: MTCC 96, 24 h.
For assay [18], the system named is Aspergillus niger. The experiment in a line: Antifungal activity against Aspergillus niger MTCC 282 after 24 hr by agar disk diffusion test.
The subject of assay [19] is Proteus vulgaris. Put plainly: Antibacterial activity against Proteus vulgaris MTCC 1771 after 24 hr. The conditions noted are these: MTCC 1771, 24 h.
Assay [20] concerns Klebsiella pneumoniae. Put plainly: Antibacterial activity against Klebsiella pneumoniae MTCC 109 after 24 hr. The conditions noted are these: MTCC 109, 24 h.

Turning to `O=c1oc2ccccc2cc1-c1nnc(Sc2nc(Oc3cccc4cccnc34)nc(N3CCC(Cc4ccccc4)CC3)n2)o1`, the “inhibition zone (IZ)” value in assay [1] was found to be 16 mm; in assay [3], 14 mm; in assay [4], 11 mm; in assay [6], 12 mm; in assay [9], 13 mm; in assay [11] it was 13 mm. For the same molecule, the “inhibition zone (IZ)” value in [14], in [15], in [16] and in assay [18] was under 10 mm throughout. Besides, the MIC in assay [2], in assay [5], in assay [7], in [8], in assay [10] and in [12] was 100 µg/mL (≈ 156 µM) each time. Moreover, the MIC in assay [13], in [17], in [19] and in [20] was 100 µg/mL (≈ 156 µM) throughout.
As to `CC1CC(C)CN(c2nc(Oc3cccc4cccnc34)nc(Sc3nnc(-c4cc5ccccc5oc4=O)o3)n2)C1` (stereo not given), the “inhibition zone (IZ)” value in assay [1] came to 22 mm; in [3], 23 mm; in [4], 24 mm; in assay [6], 20 mm; in assay [9], 16 mm; in assay [11], 21 mm. For the same molecule, the “inhibition zone (IZ)” value stood at 19 mm in assay [14], 16 mm in assay [15], 22 mm in assay [16] and 23 mm in [18]. Besides, the MIC came to 25 µg/mL (≈ 43.1 µM) in [2]; 100 µg/mL (≈ 173 µM) in assay [5]; 50 µg/mL (≈ 86.3 µM) in [7]; 12.5 µg/mL (≈ 21.6 µM) in assay [8]; 25 µg/mL (≈ 43.1 µM) in [10]; 12.5 µg/mL (≈ 21.6 µM) in assay [12]. In addition, the MIC in assay [13] was 50 µg/mL (≈ 86.3 µM); in assay [17], 25 µg/mL (≈ 43.1 µM); in assay [19] it was 100 µg/mL (≈ 173 µM); in assay [20], 100 µg/mL (≈ 173 µM).
In the case of `O=c1oc2ccccc2cc1-c1nnc(Sc2nc(Oc3cccc4cccnc34)nc(N3CCN(C(c4ccccc4)c4ccccc4)CC3)n2)o1`, the “inhibition zone (IZ)” value in [1] is given as 18 mm; in assay [3], 12 mm; in assay [4], 14 mm; in assay [6], 13 mm; in [9], under 10 mm; in [11] it was 14 mm. Further, the “inhibition zone (IZ)” value is given as under 10 mm in [14], 14 mm in [15], under 10 mm in [16] and 11 mm in [18]. Besides, the MIC in assay [2], in [5], in assay [7], in assay [8], in [10] and in assay [12] was 100 µg/mL (≈ 139 µM) each time. Besides, the MIC in assay [13], in assay [17], in assay [19] and in assay [20] was 100 µg/mL (≈ 139 µM) in each case.
Consider `O=c1oc2ccccc2cc1-c1nnc(Sc2nc(Oc3cccc4cccnc34)nc(N3CCN(C(c4ccccc4)c4ccc(Cl)cc4)CC3)n2)o1` (stereo not given), for which the “inhibition zone (IZ)” value was 20 mm in assay [1]; 19 mm in assay [3]; 16 mm in assay [4]; 25 mm in assay [6]; 22 mm in assay [9]; 21 mm in assay [11]. In addition, the “inhibition zone (IZ)” value was determined as 20 mm in [14], 19 mm in assay [15], 16 mm in assay [16] and 22 mm in assay [18]. In addition, the MIC in [2] is 50 µg/mL (≈ 66.4 µM); in [5], 50 µg/mL (≈ 66.4 µM); in assay [7] it was 50 µg/mL (≈ 66.4 µM); in [8] it was 100 µg/mL (≈ 133 µM); in assay [10], 100 µg/mL (≈ 133 µM); in [12], 100 µg/mL (≈ 133 µM). In addition, the MIC in assay [13] worked out at 25 µg/mL (≈ 33.2 µM); in [17] it was 50 µg/mL (≈ 66.4 µM); in assay [19], 100 µg/mL (≈ 133 µM); in [20], 100 µg/mL (≈ 133 µM).
